Laboratory results: patent publication US7057052B2, “Heterocyclic quinones as pharmaceutical agents” (Duke University, priority 2002, dated 2006)

Target: T1, Cdc25B (Homo sapiens, UniProt P30305)
T1 sequence (P30305 1-580): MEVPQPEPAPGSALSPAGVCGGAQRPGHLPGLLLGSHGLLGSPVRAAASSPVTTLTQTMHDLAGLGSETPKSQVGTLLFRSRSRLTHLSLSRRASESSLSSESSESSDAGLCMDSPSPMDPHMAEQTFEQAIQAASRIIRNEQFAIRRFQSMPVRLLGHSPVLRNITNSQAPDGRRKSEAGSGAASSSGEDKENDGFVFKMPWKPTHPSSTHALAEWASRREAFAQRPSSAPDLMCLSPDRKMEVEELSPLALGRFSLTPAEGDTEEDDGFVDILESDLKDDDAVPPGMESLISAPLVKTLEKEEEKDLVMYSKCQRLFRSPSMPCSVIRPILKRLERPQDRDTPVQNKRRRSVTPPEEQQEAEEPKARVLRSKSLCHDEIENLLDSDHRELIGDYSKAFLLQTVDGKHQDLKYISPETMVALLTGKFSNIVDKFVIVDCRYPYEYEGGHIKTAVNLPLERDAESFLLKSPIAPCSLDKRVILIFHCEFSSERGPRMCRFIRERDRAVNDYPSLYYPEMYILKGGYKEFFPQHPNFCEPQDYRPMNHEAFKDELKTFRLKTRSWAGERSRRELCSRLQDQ
Assay: Cdc25B phosphatase inhibition (50 μM screen, 3 pt. and 8 pt. IC-50)
Assay type: biochemical
Settings: Cdc25B; 3 pt. IC-50 using 1, 7 and 50 μM; read-out: IC50 (3 pt)
Description: Using procedures known to those skilled in the art, the compounds listed in Table 3 were screened against Cdc25A, Cdc25B, and Cdc25C at 50 μM. […] To analyze these effects further, the compounds were then screened against Cdc25B in a 3 pt. IC-50, using 1, 7 and 50 μM. Several of the compounds were also screened with an 8 pt. IC-50 process, using 0.1–10 μM, allowing determination of Hill slopes.

Structure (SMILES): COc1cccc2[nH]cc(C3=C(O)C(=O)C(c4c(C(C)(C)C)[nH]c5ccccc45)=C(O)C3=O)c12 [9E, 2-(2-tert-butyl-1H-indol-3-yl)-3,6-dihydroxy-5-(4-methoxy-1H-indol-3-yl)-[1,4]-benzoquinone]
- IC50: 13.7 µM

Structure (SMILES): Cc1ccc2c(C3=C(O)C(=O)C(c4c(C(C)(C)C)[nH]c5ccccc45)=C(O)C3=O)c[nH]c2c1 [10D, 2-(2-tert-butyl-1H-indol-3-yl)-3,6-dihydroxy-5-(6-methyl-1H-indol-3-yl)-[1,4]-benzoquinone]
- IC50: 5.3 µM

Structure (SMILES): Cc1[nH]c2ccccc2c1C1=C(O)C(=O)c2cccc(O)c2C1=O [11D, 2,5-dihydoxy-3-(2-methyl-1H-indol-3-yl)-[1,4]naphthoquinone]
- IC50: 18 µM

Structure (SMILES): C=CC(C)(C)c1[nH]c2ccccc2c1C1=C(O)C(=O)C(c2c[nH]c3c(CC=C(C)C)cccc23)=C(O)C1=O [8E, DAQ-B1, reference compound]
- IC50: 0.9 µM

Structure (SMILES): Cc1ccc2[nH]c(C)c(C3=C(O)C(=O)C(c4c(C(C)(C)C)[nH]c5ccccc45)=C(O)C3=O)c2c1 [10G, 2-(2-tert-butyl-1H-indol-3-yl)-3,6-dihydroxy-5-(2,5-dimethyl-1H-indol-3-yl)-[1,4]-benzoquinone]
- IC50: 14.6 µM

Structure (SMILES): Cc1[nH]c2ccccc2c1C1=C(O)C(=O)C(c2c(C)[nH]c3ccccc23)=C(O)C1=O [11C, 2,5-dihydroxy-3,6-bis(2-methyl-1H-indol-3-yl)l-[1,4]-benzoquinone]
- IC50: 15.7 µM

Structure (SMILES): CC(C)(C)c1[nH]c2ccccc2c1C1=C(O)C(=O)C(c2c(-c3ccccc3)[nH]c3ccccc23)=C(O)C1=O [9D, 2-(2-tert-butyl-1H-indol-3-yl)-3,6-dihydroxy-5-(2-phenyl-1H-indol-3-yl)-[1,4]-benzoquinone]
- IC50: 6.1 µM

Structure (SMILES): Cc1[nH]c2ccc(Cl)cc2c1C1=C(O)C(=O)C(c2c(C(C)(C)C)[nH]c3ccccc23)=C(O)C1=O [11A, 2-(2-tert-butyl-1H-indol-3-yl)-3,6-dihydroxy-5-(2-methyl-5-chloro-1H-indol-3-yl)-[1,4]-benzoquinone]
- IC50: 8.4 µM

Structure (SMILES): CC(C)(C)c1[nH]c2ccccc2c1C1=C(O)C(=O)C(c2c(C(C)(C)C)[nH]c3ccccc23)=C(O)C1=O [9C, 2-(2-tert-butyl-1H-indol-3-yl)-3,6-dihydroxy-5-(2-tert-butyl-1H-indol-3-yl)-[1,4]-benzoquinone]
- IC50: 5.1 µM

Structure (SMILES): Cc1cccc2c(C3=C(O)C(=O)C(c4c(C(C)(C)C)[nH]c5ccccc45)=C(O)C3=O)c[nH]c12 [10E, 2-(2-tert-butyl-1H-indol-3-yl)-3,6-dihydroxy-5-(7-methyl-1H-indol-3-yl)-[1,4]-benzoquinone]
- IC50: 4.8 µM

Structure (SMILES): CC(C)(C)c1[nH]c2ccccc2c1C1=C(O)C(=O)C(c2c(C(C)(C)C)[nH]c3ccccc23)=C(Cl)C1=O [11E, 2,5-bis(2-tert-butyl-1H-indol-3-yl)-3-chloro-6-hydroxy-[1,4]-benzoquinone]
- IC50: 22.9 µM

Structure (SMILES): CC(C)(C)c1[nH]c2ccccc2c1C1=C(O)C(=O)C(c2c[nH]c3c(C(C)(C)C)cccc23)=C(O)C1=O [10F, 2-(2-tert-butyl-1H-indol-3-yl)-3,6-dihydroxy-5-(7-tert-butyl-1H-indol-3-yl)-[1,4]-benzoquinone]
- IC50: 0.9 µM

Structure (SMILES): COc1ccc2[nH]cc(C3=C(O)C(=O)C(c4c(C(C)(C)C)[nH]c5ccccc45)=C(O)C3=O)c2c1 [9H, 2-(2-tert-butyl-1H-indol-3-yl)-3,6-dihydroxy-5-(5-methoxyl-1H-indol-3-yl)-[1,4]-benzoquinone]
- IC50: 80.3 µM

Structure (SMILES): Cn1cc(C2=C(O)C(=O)C(c3c(C(C)(C)C)[nH]c4ccccc34)=C(O)C2=O)c2ccccc21 [8G, 2-(2-tert-butyl-1H-indol-3-yl)-3,6-dihydroxy-5-(1-methyl-1H-indol-3-yl)-[1,4]-benzoquinone]
- IC50: 12 µM

Structure (SMILES): Cc1cccc2c(C3=C(O)C(=O)C(c4c(C(C)(C)C)[nH]c5ccccc45)=C(Cl)C3=O)c[nH]c12 [11G, 2-(2-tert-butyl-1H-indol-3-yl)-5-(7-methyl-1H-indol-3-yl)-3-chloro-6-hydroxy-[1,4]-benzoquinone]
- IC50: 33.8 µM

Structure (SMILES): CC(C)(C)c1[nH]c2ccccc2c1C1=C(O)C(=O)C(c2c[nH]c3ccc(F)cc23)=C(O)C1=O [9G, 2-(2-tert-butyl-1H-indol-3-yl)-3,6-dihydroxy-5-(5-fluoro-1H-indol-3-yl)-[1,4]-benzoquinone]
- IC50: 8.7 µM

Structure (SMILES): CC(C)c1[nH]c2ccccc2c1C1=C(O)C(=O)C(c2c(C(C)(C)C)[nH]c3ccccc23)=C(O)C1=O [9B, 2-(2-tert-butyl-1H-indol-3-yl)-3,6-dihydroxy-5-(2-isopropyl-1H-indol-3-yl)-[1,4]-benzoquinone]
- IC50: 5 µM

Structure (SMILES): Cc1ccc2[nH]cc(C3=C(O)C(=O)C(c4c(C(C)(C)C)[nH]c5ccccc45)=C(O)C3=O)c2c1 [10B, 2-(2-tert-butyl-1H-indol-3-yl)-3,6-dihydroxy-5-(5-methyl-1H-indol-3-yl)-[1,4]-benzoquinone]
- IC50: 7.2 µM

Structure (SMILES): CC(C)(C)c1[nH]c2ccccc2c1C1=C(O)C(=O)C(c2c[nH]c3cccc(OCc4ccccc4)c23)=C(O)C1=O [9F, 2-(2-tert-butyl-1H-indol-3-yl)-3,6-dihydroxy-5-(4-benzyloxy-1H-indol-3-yl)-[1,4]-benzoquinone]
- IC50: 2.3 µM

Structure (SMILES): COc1ccc2[nH]c(C)c(C3=C(O)C(=O)C(c4c(C(C)(C)C)[nH]c5ccccc45)=C(O)C3=O)c2c1 [10H, 2-(2-tert-butyl-1H-indol-3-yl)-3,6-dihydroxy-5-(2-methyl-5-methoxy-1H-indol-3-yl)-[1,4]-benzoquinone]
- IC50: 11.5 µM

Structure (SMILES): CC(C)(C)c1[nH]c2ccccc2c1C1=C(O)C(=O)C(c2c[nH]c3cc(F)ccc23)=C(O)C1=O [10C, 2-(2-tert-butyl-1H-indol-3-yl)-3,6-dihydroxy-5-(6-fluoro-1H-indol-3-yl)-[1,4]-benzoquinone]
- IC50: 5.3 µM

Structure (SMILES): CC(C)(C)c1[nH]c2ccccc2c1C1=C(Cl)C(=O)C(c2c[nH]c3ccccc23)=C(O)C1=O [11F, 2-(2-tert-butyl-1H-indol-3-yl)-5-(1H-indol-3-yl)-3-chloro-6-hydroxy-[1,4]-benzoquinone]
- IC50: 49.9 µM

Structure (SMILES): Cn1cc(C2=C(O)C(=O)C(c3ccccc3)=C(O)C2=O)c2ccccc21 [11B, 2,5-dihydroxy-3-(1-methyl-1H-indol-3-yl)-6-phenyl-[1,4]-benzoquinone]
- IC50: 7.9 µM

Structure (SMILES): CC(C)(C)c1[nH]c2ccccc2c1C1=C(O)C(=O)C(c2c(C3CC3)[nH]c3ccccc23)=C(O)C1=O [9A, 2-(2-tert-butyl-1H-indol-3-yl)-3,6-dihydroxy-5-(2-cyclopropyl-1H-indol-3-yl)-[1,4]-benzoquinone]
- IC50: 5.6 µM

Structure (SMILES): CC(C)(C)c1[nH]c2ccccc2c1C1=C(O)C(=O)C(c2c[nH]c3ccccc23)=C(O)C1=O [8F, 2-(2-tert-butyl-1H-indol-3-yl)-3,6-dihydroxy-5-(1H-indol-3-yl)-[1,4]-benzoquinone]
- IC50: 11.2 µM

Structure (SMILES): CC(C)(C)c1[nH]c2ccccc2c1C1=C(O)C(=O)C(c2c[nH]c3ccc(OCc4ccccc4)cc23)=C(O)C1=O [10A, 2-(2-tert-butyl-1H-indol-3-yl)-3,6-dihydroxy-5-(5-benzyloxy-1H-indol-3-yl)-[1,4]-benzoquinone]
- IC50: 0.6 µM

Structure (SMILES): Cc1[nH]c2ccccc2c1C1=C(O)C(=O)C(c2c(C(C)(C)C)[nH]c3ccccc23)=C(O)C1=O [8H, 2-(2-tert-butyl-1H-indol-3-yl)-3,6-dihydroxy-5-(2-methyl-1H-indol-3-yl)-[1,4]-benzoquinone]
- IC50: 5.8 µM
